Read-outs that look alike come from different tables or passages of the source.
Experiments:
[1] = Pharmacokinetic (PK) studies, in vivo monkey oral PK; parameters: species or system Cynomolgus monkeys; details: Cynomolgus monkey; for Tmax / AUC(0-t) / Cmax / bioavailability: plasma; for AUC(0-t): read-out: AUC0-24 (Arbitrary units); for Cmax: read-out: Cmax (Arbitrary unit); for bioavailability: read-out: F % (oral bioavailability)
Procedure: Pharmacokinetic (PK) Studies Test Articles:
Examples 60, 115, 117, and 119 were tested along with comparative examples CE-1 and CE-2.
Dose Formulation Preparation
Compounds CE-2, Example 60, Example 115, Example 117, and Example 119 were combined with a mixture of 10% NMP (v:v) and 90% PEG300 (v:v), and the mixture was stirred until a homogeneous solution was obtained.
Compound CE-1 was combined with a mixture of 15% 2-hydroxypropyl-β-cyclodextrin (w:v) and 85% Milli-Q water (v:v), and the mixture was stirred until a homogeneous solution was obtained.
Young adult non-naive Cynomolgus monkeys with weight about 2.5-5 kg (n=1-3/test article/route) were fasted overnight and then dosed with either CE-1, CE2, Example 60, Example 115, Example 117 or Example 119. Food was supplied approximately 4 hours post dose and animals were provided with free access to water all the time. Animals were restrained at designated time points for blood sampling. Approximately 500 μL of blood samples was taken via cephalic or saphenous vein into EDTA-K2 tubes. For oral administration (PO): blood samples were generally collected pre-dose, and at 15 min, 30 min, 1 hr., 2 hr., 4 hr., 8 hr., 12 hr., and 24 hr. time points after dosing. Blood was be maintained on wet ice, in chilled cryoracks, or at approximately 5° C. prior to centrifugation to obtain plasma. Centrifugation was conducted within 1 hour of collection. Plasma (approximately 200 μL) was placed into a micronic tubes containing 4 μL of formic acid (the final concentration of formic acid in plasma was approximately 2%) and samples were vortex mixed. Samples were maintained on dry ice prior to storage at approximately −70° C.
LC-MS/MS assays were utilized to quantify the concentration of the test articles in plasma as follows.
50 μL plasma sample was mixed with 350 μL of ACN combined with an internal standard. The mixture was then vortexed for about 1-5 min, and centrifuged at about 4,000-5,800 rpm for about […]. An aliquot of 1 μL supernatant was used for LC-MS/MS analysis.
MS conditions: A Sciex API 6500 equipped with electrospray ionization in the positive ion selected reaction monitoring mode was used for detection.
HPLC conditions • Mobile Phase A: H2O-0.11% Formic Acid • Mobile Phase B: ACN-0.1% Formic Acid
• Column: Phenomenex Kinetex XBCl8 (2.1×50 mm, 2.6 μm) with a flow rate of 1.20 mL/min • Column temperature: 60° C. • Retention time: approximately between 0.85 to 1.05 • min Pharmacokinetics (PK) Parameters
Pharmacokinetics parameters, including area under the curve (AUC0-24), maximum plasma concentration (Cmax), time to reach maximum plasma concentration (Tmax), oral bioavailability (F %), etc., were calculated using Dotmatics software in non-compartmental model.

GLP-1R = GLP-1R (Homo sapiens, UniProt P43220); assay: GLP-1R Activation - cAMP Assay; assay type: cell-based; details: cAMP increase in CHO cells stably expressing GLP-1R; each compound run on one of the two cAMP assays (Assay 1 or Assay 2, not specified)
GLP-1R, sequence (P43220 24-463): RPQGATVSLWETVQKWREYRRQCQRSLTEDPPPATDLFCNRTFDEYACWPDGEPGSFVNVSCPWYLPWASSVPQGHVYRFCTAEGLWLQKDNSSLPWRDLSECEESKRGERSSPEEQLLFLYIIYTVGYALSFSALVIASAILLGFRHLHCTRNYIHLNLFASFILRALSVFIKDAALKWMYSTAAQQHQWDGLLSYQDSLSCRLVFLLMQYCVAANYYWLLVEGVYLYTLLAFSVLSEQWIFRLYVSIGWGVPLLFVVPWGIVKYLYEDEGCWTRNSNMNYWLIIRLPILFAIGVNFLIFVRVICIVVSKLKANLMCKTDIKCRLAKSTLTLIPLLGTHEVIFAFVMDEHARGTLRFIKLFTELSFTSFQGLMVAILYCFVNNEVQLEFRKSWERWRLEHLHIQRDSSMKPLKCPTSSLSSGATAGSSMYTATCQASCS
Procedure, shortened: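 cAMP rise read by HTRF after 30 min agonist exposure (10-point titration, 37 °C) in HBSS/20 mM Hepes/0.1% BSA, following 1 h pre-incubation. Cells: stable GLP-1R CHO line, 1,000/well, seeded overnight. Sigmoidal fit of response vs log concentration gives EC50.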

| SMILES | Tmax ([1]; single oral dose 2 mg/kg) | AUC(0-t) ([1]; single oral dose 2 mg/kg) | Cmax ([1]; single oral dose 2 mg/kg) | bioavailability ([1]; single oral dose 2 mg/kg) | EC50 (GLP-1R) | also measured |
| --- | --- | --- | --- | --- | --- | --- |
| N#Cc1ccc(COc2cccc(C3CCN(Cc4nc5ccc(C(=O)O)cc5n4C[C@@H]4CCO4)CC3)n2)c(F)c1 [CE-1, (S)-2-((4-(6-((4-cyano-2-fluorobenzyl)oxy)pyridin-2-yl)piperidin-1-yl)methyl)-1-(oxetan-2-ylmethyl)-1H-benzo[d]imidazole-6-carboxylic acid, reference compound] | – | – | – | – | – | plasma concentrations ([1]; over a period of 12 h after a single oral dose of 1 mg/kg): < 10 nM; Tmax ([1]; single oral dose 1 mg/kg): 2.2 ± 1.8 h; AUC(0-t) ([1]; single oral dose 1 mg/kg): 0.0477 ± 0.0133 µM·h; Cmax ([1]; single oral dose 1 mg/kg): 4.5 ± 0.8 nM; plasma exposure after the 12 h period ([1]; single oral dose of 1 mg/kg, after 12 h): below the detection limit; bioavailability ([1]; single oral dose 1 mg/kg): 2.5% |
| N#Cc1ccc(COc2cccc(-c3cc(F)c(Cc4nc5ccc(C(=O)O)cc5n4C[C@@H]4CCO4)cc3F)n2)c(F)c1 [CE-2, (S)-2-(4-(6-((4-cyano-2-fluorobenzyl)oxy)pyridin-2-yl)-2,5-difluorobenzyl)-1-(oxetan-2-ylmethyl)-1H-benzo[d]imidazole-6-carboxylic acid, reference compound] | 4 ± 2 h | 2.81 ± 1.33 µM·h | 224 ± 130 nM | 27.4% | – | duration of exposure ([1]; single oral dose 2 mg/kg): sustained exposures over 24 h |
| CC1(C)COC[C@H]1n1c(Cc2cc(F)c(-c3ccnc(OCc4ccc(Cl)cc4F)n3)cc2F)nc2c(F)cc(C(=O)O)cc21 [Example 117, (S)-2-(4-(2-((4-chloro-2-fluorobenzyl)oxy)pyrimidin-4-yl)-2,5-difluorobenzyl)-1-(4,4-dimethyltetrahydrofuran-3-yl)-4-fluoro-1H-benzo[d]imidazole-6-carboxylic Acid] | 4.7 ± 2.3 h | 12.8 ± 4.01 µM·h | 1600 ± 832 nM | 52.2 ± 16.3% | 0.044 nM | – |
| CC1(C)COC[C@H]1n1c(Cc2cc(F)c(-c3cccc(OCc4ccc(C#N)cc4)n3)cc2F)nc2ccc(C(=O)O)cc21 [Example 119, (S)-2-(4-(6-((4-cyanobenzyl)oxy)pyridin-2-yl)-2,5-difluorobenzyl)-1-(4,4-dimethyltetrahydrofuran-3-yl)-benzimidazole-6-carboxylic Acid] | 1.7 ± 0.6 h | 19.4 ± 3.31 µM·h | 1190 ± 137 nM | 47.6 ± 8.1% | 0.031 nM | – |
| CC(C)COCCn1c(Cc2cc(F)c(-c3cccc(OCc4ccc(Cl)cc4F)n3)cc2F)nc2ccc(C(=O)O)cc21 [Example 566, 2-(4-(6-((4-chloro-2-fluorobenzyl)oxy)pyridin-2-yl)-2,5-difluorobenzyl)-1-(2-isobutoxyethyl)-1H-benzo[d]imidazole-6-carboxylic acid] | – | – | – | – | 4.09 nM | – |
| COCCn1c(Cc2cc(F)c(-c3cccc(OCc4cnc(-n5nc6c(n5)CCCC6)cc4Cl)n3)cc2F)nc2ccc(C(=O)O)cc21 [Example 567, 2-(4-(6-((4-chloro-6-(4,5,6,7-tetrahydro-2H-benzo[d][1,2,3]triazol-2-yl)pyridin-3-yl)methoxy)pyridin-2-yl)-2,5-difluorobenzyl)-1-(2-methoxyethyl)-1H-benzo[d]imidazole-6-carboxylic acid] | – | – | – | – | 100 nM | – |
| COCCn1c(Cc2cc(F)c(-c3cccc(OCc4cnc(-n5nnc6c5CCCC6)cc4Cl)n3)cc2F)nc2ccc(C(=O)O)cc21 [Example 568, 2-(4-(6-((4-chloro-6-(4,5,6,7-tetrahydro-1H-benzo[d][1,2,3]triazol-1-yl)pyridin-3-yl)methoxy)pyridin-2-yl)-2,5-difluorobenzyl)-1-(2-methoxyethyl)-1H-benzo[d]imidazole-6-carboxylic acid] | – | – | – | – | 1.56 nM | – |
| CC(C)COCCn1c(Cc2cc(F)c(-c3cccc(OCc4cnc(-n5ccnn5)cc4Cl)n3)cc2F)nc2ccc(C(=O)O)cc21 [Example 569, 2-(4-(6-((4-chloro-6-(1H-1,2,3-triazol-1-yl)pyridin-3-yl)methoxy)pyridin-2-yl)-2,5-difluorobenzyl)-1-(2-isobutoxyethyl)-1H-benzo[d]imidazole-6-carboxylic acid] | – | – | – | – | 0.987 nM | – |
| CC1(C)COC[C@H]1n1c(Cc2c(F)cc(-c3ccnc(OCc4ccc(F)cc4)n3)c(F)c2F)nc2ccc(C(=O)O)cc21 [Example 574, (S)-1-(4,4-dimethyltetrahydrofuran-3-yl)-2-(2,3,6-trifluoro-4-(2-((4-fluorobenzyl)oxy)pyrimidin-4-yl)benzyl)-1H-benzo[d]imidazole-6-carboxylic acid] | – | – | – | – | 0.457 nM | – |
| CC1(C)COC[C@H]1n1c(Cc2cc(F)c(-c3ccnc(OCc4ccc(F)cc4)n3)cc2F)nc2ccc(C(=O)O)cc21 [Example 575, (S)-2-(2,5-difluoro-4-(2-((4-fluorobenzyl)oxy)pyrimidin-4-yl)benzyl)-1-(4,4-dimethyltetrahydrofuran-3-yl)-1H-benzo[d]imidazole-6-carboxylic acid] | – | – | – | – | 0.186 nM | – |

Second part, led by results:

| Tmax ([1]; single oral dose 2 mg/kg) | AUC(0-t) ([1]; single oral dose 2 mg/kg) | Cmax ([1]; single oral dose 2 mg/kg) | bioavailability ([1]; single oral dose 2 mg/kg) | EC50 (GLP-1R) | SMILES | also measured |
| --- | --- | --- | --- | --- | --- | --- |
| 1.5 ± 0.9 h | 5.57 ± 2.19 µM·h | 385 ± 82 nM | 47.6 ± 12.3% | 0.04 nM | CC1(C)COC[C@H]1n1c(Cc2cc(F)c(-c3cccc(OCc4ccc(C#N)cc4F)n3)cc2F)nc2ccc(C(=O)O)cc21 [Example 60] | – |
| 2.7 ± 1.2 h | 17.9 ± 2.04 µM·h | 1540 ± 166 nM | 42 ± 16.5% | 0.122 nM | CC1(C)COC[C@H]1n1c(Cc2cc(F)c(-c3cccc(OCc4ccc(Cl)cc4F)n3)cc2F)nc2ccc(C(=O)O)cc21 [Example 115] | – |
| – | – | – | – | 0.194 nM | CO[C@H](C)[C@@H](C)n1c(Cc2cc(F)c(-c3cccc(OCc4ccc(Cl)cc4F)n3)cc2F)nc2ccc(C(=O)O)cc21 [Example 565, 2-(4-(6-((4-chloro-2-fluorobenzyl)oxy)pyridin-2-yl)-2,5-difluorobenzyl)-1-((2R,3R)-3-methoxybutan-2-yl)-1H-benzo[d]imidazole-6-carboxylic acid] | – |
| – | – | – | – | 0.955 nM | CC(C)O[C@H]1COC[C@H]1n1c(Cc2cc(F)c(-c3cccc(OCc4ccc(Cl)cc4F)n3)cc2F)nc2ccc(C(=O)O)cc21 [Example 570, 2-(4-(6-((4-chloro-2-fluorobenzyl)oxy)pyridin-2-yl)-2,5-difluorobenzyl)-1-((3R,4R)-4-isopropoxytetrahydrofuran-3-yl)-1H-benzo[d]imidazole-6-carboxylic acid] | – |
| – | – | – | – | 1.27 nM | CCO[C@H]1COC[C@H]1n1c(Cc2cc(F)c(-c3cccc(OCc4ccc(Cl)cc4F)n3)cc2F)nc2ccc(C(=O)O)cc21 [Example 571, 2-(4-(6-((4-chloro-2-fluorobenzyl)oxy)pyridin-2-yl)-2,5-difluorobenzyl)-1-((3R,4R)-4-ethoxytetrahydrofuran-3-yl)-1H-benzo[d]imidazole-6-carboxylic acid] | – |

From US12570642B2, “GLP-IR modulating compounds” (Gilead Sciences, Inc., priority 2021, dated 2026)
